Where two headings read alike, the source gives them in different places.
Test system: Wheat and Barley and weed species
Assay: Post-Emergent Test III: postemergent herbicidal activity in wheat and barley, visual rating after 21 d and probit GR20/GR50/GR80/GR90 (Tables 9-13)
Assay type: in vivo
Settings: for Visual Growth Reduction (%) 21 Days After Application BRSNW: winter, canola; for pest or weed control at 17.5 g/ha / pest or weed control at 35 g/ha / pest or weed control at 70 g/ha: post-emergence, 504 h
From the text: Herbicidal evaluations were made visually on a scale of 0 to 100 where 0 represents no activity and 100 represents complete plant death.
Seeds of the desired test plant species were planted in Sun Gro MetroMix® 306 planting mixture, which typically has a pH of 6.0 to 6.8 and an organic matter content of about 30 percent, in plastic pots with a surface area of 103.2 square centimeters (cm^2). When required to ensure good germination and healthy plants, a fungicide treatment and/or other chemical or physical treatment was applied. The plants were grown for 7-36 days (d) in a greenhouse with an approximate 14 hour (h) photoperiod which was maintained at about 18° C. during the day and 17° C. during the night. Nutrients and water were added on a regular basis and supplemental lighting was provided with overhead metal halide 1000-Watt lamps as necessary. The plants were employed for testing when they reached the second or third true leaf stage.
A weighed amount, determined by the highest rate to be tested, of each test compound was placed in a 25 mL glass vial and was dissolved in 4 mL of a 97:3 v/v mixture of acetone and DMSO to obtain concentrated stock solutions. […] The concentrated stock solutions obtained were diluted with 20 mL of an aqueous mixture containing acetone, water, isopropyl alcohol, DMSO, Agri-Dex crop oil concentrate, and X-77 surfactant in a 48:39:10:1.5:1.5:0.02 v/v ratio to obtain spray solutions containing the highest application rates. Additional application rates were obtained by serial dilution of 12 mL of the high rate solution into a solution containing 2 mL of a 97:3 v/v mixture of acetone and DMSO and 10 mL of an aqueous mixture containing acetone, water, isopropyl alcohol, DMSO, Agri-Dex crop oil concentrate, and X-77 surfactant in a 48:39:10:1.5:1.5:0.02 v/v ratio to obtain ½×, ¼×, ⅛× and 1/16× rates of the high rate. Compound requirements are based upon a 12 mL application volume at a rate of 187 liters per hectare (L/ha). Formulated compounds were applied to the plant material with an overhead Mandel track sprayer equipped with 8002E nozzles calibrated to deliver 187 L/ha over an application area of 0.503 square meters at a spray height of 18 inches (43 cm) above the average plant canopy height. Control plants were sprayed in the same manner with the solvent blank.
The treated plants and control plants were placed in a greenhouse as described above and watered by subirrigation to prevent wash-off of the test compounds. After 21 d, the condition of the test plants as compared with that of the untreated plants was determined visually and scored on a scale of 0 to 100 percent where 0 corresponds to no injury and 100 corresponds to complete kill and are presented as indicated in Table 4.
By applying the well-accepted probit analysis as described by J. Berkson in Journal of the American Statistical Society, 48, 565 (1953) and by D. Finney in “Probit Analysis” Cambridge University Press (1952), herbicidal injury of a specific compound at various rates can be used to calculate GR20, GR50, GR80 and GR90 values, which are defined as growth reduction factors that correspond to the effective dose of herbicide required to provide plant growth reduction (GR) of 20 percent, 50 percent, 80 percent and 90 percent, respectively. Probit analysis was applied to data collected from multiple dose rates of individual compounds utilizing the procedures explained in the following examples. The data for some of the dose rates and analysis of all of the dose rates are captured in the following tables.

Nc1c(F)c(-c2ccc3c(c2)OC(F)(F)O3)nc(C(=O)O)c1Cl [Compound 7]
GR50 ALOMY (ALOMY black-grass (Alopecurus myosuroides), growth reduction of 50%, probit analysis): 16 g ai/ha | GR80 ALOMY (ALOMY black-grass (Alopecurus myosuroides), growth reduction of 80%, probit analysis): 25 g ai/ha | GR90 ALOMY (ALOMY black-grass (Alopecurus myosuroides), growth reduction of 90%, probit analysis): 34 g ai/ha | GR50 APESV (APESV bentgrass (Apera spica-venti), growth reduction of 50%, probit analysis): 30 g ai/ha | GR80 APESV (APESV bentgrass (Apera spica-venti), growth reduction of 80%, probit analysis): 114 g ai/ha | GR90 APESV (APESV bentgrass (Apera spica-venti), growth reduction of 90%, probit analysis): >140 g ai/ha | Visual Growth Reduction (%) 21 Days After Application BROTE (BROTE downy brome (Bromus tectorum), 17.5 g ai/ha): E (45-59) | Visual Growth Reduction (%) 21 Days After Application BROTE (BROTE downy brome (Bromus tectorum), 35 g ai/ha): D (60-74) | Visual Growth Reduction (%) 21 Days After Application BROTE (BROTE downy brome (Bromus tectorum), 70 g ai/ha): A (95-100) | GR50 BROTE (BROTE downy brome (Bromus tectorum), growth reduction of 50%, probit analysis): 15 g ai/ha | GR80 BROTE (BROTE downy brome (Bromus tectorum), growth reduction of 80%, probit analysis): 37 g ai/ha | GR90 BROTE (BROTE downy brome (Bromus tectorum), growth reduction of 90%, probit analysis): 59 g ai/ha | GR10 BRSNW (BRSNW oil seed rape, winter (Brassica napus), GR10, probit analysis): 0.5 g ai/ha | GR20 BRSNW (BRSNW oil seed rape, winter (Brassica napus), growth reduction of 20%, probit analysis): 1 g ai/ha | GR50 BRSNW (BRSNW oil seed rape, winter (Brassica napus), growth reduction of 50%, probit analysis): 5 g ai/ha | GR80 BRSNW (BRSNW oil seed rape, winter (Brassica napus), growth reduction of 80%, probit analysis): 24 g ai/ha | GR90 BRSNW (BRSNW oil seed rape, winter (Brassica napus), growth reduction of 90%, probit analysis): 53 g ai/ha | Visual Growth Reduction (%) 21 Days After Application BRSNW (BRSNW oil seed rape, winter (Brassica napus), 17.5 g ai/ha): D (60-74) | Visual Growth Reduction (%) 21 Days After Application BRSNW (BRSNW oil seed rape, winter (Brassica napus), 35 g ai/ha): C (75-84) | Visual Growth Reduction (%) 21 Days After Application BRSNW (BRSNW oil seed rape, winter (Brassica napus), 70 g ai/ha): A (95-100) | Visual Growth Reduction (%) 21 Days After Application GALAP (GALAP cleavers (Galium aparine), 17.5 g ai/ha): E (45-59) | Visual Growth Reduction (%) 21 Days After Application GALAP (GALAP cleavers (Galium aparine), 35 g ai/ha): D (60-74) | Visual Growth Reduction (%) 21 Days After Application GALAP (GALAP cleavers (Galium aparine), 70 g ai/ha): A (95-100) | GR50 GALAP (GALAP cleavers (Galium aparine), growth reduction of 50%, probit analysis): 12 g ai/ha | GR80 GALAP (GALAP cleavers (Galium aparine), growth reduction of 80%, probit analysis): 31 g ai/ha | GR90 GALAP (GALAP cleavers (Galium aparine), growth reduction of 90%, probit analysis): 52 g ai/ha | GR10 HORVS (HORVS barley, spring (crop), GR10, probit analysis): 1 g ai/ha | GR20 HORVS (HORVS barley, spring (crop), growth reduction of 20%, probit analysis): 2 g ai/ha | pest or weed control at 17.5 g/ha (Hordeum vulgare, HORVS barley, spring (crop), 17.5 g ai/ha, read-out: Visual Growth Reduction (%) 21 Days After Application HORVS): 75 to 84% | pest or weed control at 35 g/ha (Hordeum vulgare, HORVS barley, spring (crop), 35 g ai/ha, read-out: Visual Growth Reduction (%) 21 Days After Application HORVS): 85 to 94% | pest or weed control at 70 g/ha (Hordeum vulgare, HORVS barley, spring (crop), 70 g ai/ha, read-out: Visual Growth Reduction (%) 21 Days After Application HORVS): 85 to 94% | Visual Growth Reduction (%) 21 Days After Application LAMPU (LAMPU purple deadnettle (Lamium purpureum), 17.5 g ai/ha): C (75-84) | Visual Growth Reduction (%) 21 Days After Application LAMPU (LAMPU purple deadnettle (Lamium purpureum), 35 g ai/ha): B (85-94) | Visual Growth Reduction (%) 21 Days After Application LAMPU (LAMPU purple deadnettle (Lamium purpureum), 70 g ai/ha): A (95-100) | GR50 LAMPU (LAMPU purple deadnettle (Lamium purpureum), growth reduction of 50%, probit analysis): 3 g ai/ha | GR80 LAMPU (LAMPU purple deadnettle (Lamium purpureum), growth reduction of 80%, probit analysis): 12 g ai/ha | GR90 LAMPU (LAMPU purple deadnettle (Lamium purpureum), growth reduction of 90%, probit analysis): 27 g ai/ha | GR50 LOLSS (LOLSS ryegrass, growth reduction of 50%, probit analysis): >140 g ai/ha | GR80 LOLSS (LOLSS ryegrass, growth reduction of 80%, probit analysis): >140 g ai/ha | GR90 LOLSS (LOLSS ryegrass, growth reduction of 90%, probit analysis): >140 g ai/ha | Visual Growth Reduction (%) 21 Days After Application PHAMI (PHAMI lesser canary grass (Phalaris minor), 17.5 g ai/ha): C (75-84) | Visual Growth Reduction (%) 21 Days After Application PHAMI (PHAMI lesser canary grass (Phalaris minor), 35 g ai/ha): B (85-94) | Visual Growth Reduction (%) 21 Days After Application PHAMI (PHAMI lesser canary grass (Phalaris minor), 70 g ai/ha): A (95-100) | GR50 PHAMI (PHAMI lesser canary grass (Phalaris minor), growth reduction of 50%, probit analysis): 10 g ai/ha | GR80 PHAMI (PHAMI lesser canary grass (Phalaris minor), growth reduction of 80%, probit analysis): 24 g ai/ha | GR90 PHAMI (PHAMI lesser canary grass (Phalaris minor), growth reduction of 90%, probit analysis): 39 g ai/ha | GR50 SETVI (SETVI green foxtail (Setaria viridis), growth reduction of 50%, probit analysis): 6 g ai/ha | GR80 SETVI (SETVI green foxtail (Setaria viridis), growth reduction of 80%, probit analysis): 13 g ai/ha | GR90 SETVI (SETVI green foxtail (Setaria viridis), growth reduction of 90%, probit analysis): 21 g ai/ha | Visual Growth Reduction (%) 21 Days After Application SINAR (SINAR wild mustard (Sinapis arvensis), 17.5 g ai/ha): C (75-84) | Visual Growth Reduction (%) 21 Days After Application SINAR (SINAR wild mustard (Sinapis arvensis), 35 g ai/ha): B (85-94) | Visual Growth Reduction (%) 21 Days After Application SINAR (SINAR wild mustard (Sinapis arvensis), 70 g ai/ha): A (95-100) | GR50 SINAR (SINAR wild mustard (Sinapis arvensis), growth reduction of 50%, probit analysis): 3 g ai/ha | GR80 SINAR (SINAR wild mustard (Sinapis arvensis), growth reduction of 80%, probit analysis): 15 g ai/ha | GR90 SINAR (SINAR wild mustard (Sinapis arvensis), growth reduction of 90%, probit analysis): 36 g ai/ha | GR10 TRZAS (TRZAS wheat, spring (crop), GR10, probit analysis): 2 g ai/ha | GR20 TRZAS (TRZAS wheat, spring (crop), growth reduction of 20%, probit analysis): 3 g ai/ha | pest or weed control at 17.5 g/ha (Triticum aestivum, TRZAS wheat, spring (crop), 17.5 g ai/ha, read-out: Visual Growth Reduction (%) 21 Days After Application TRZAS): 75 to 84% | pest or weed control at 35 g/ha (Triticum aestivum, TRZAS wheat, spring (crop), 35 g ai/ha, read-out: Visual Growth Reduction (%) 21 Days After Application TRZAS): 85 to 94% | pest or weed control at 70 g/ha (Triticum aestivum, TRZAS wheat, spring (crop), 70 g ai/ha, read-out: Visual Growth Reduction (%) 21 Days After Application TRZAS): 85 to 94% | pest or weed control at 17.5 g/ha (ALOMY black-grass (Alopecurus myosuroides), 17.5 g ai/ha, read-out: Visual Growth Reduction (%) 21 Days After Application ALOMY): 45 to 59% | pest or weed control at 35 g/ha (ALOMY black-grass (Alopecurus myosuroides), 35 g ai/ha, read-out: Visual Growth Reduction (%) 21 Days After Application ALOMY): 85 to 94% | pest or weed control at 70 g/ha (ALOMY black-grass (Alopecurus myosuroides), 70 g ai/ha, read-out: Visual Growth Reduction (%) 21 Days After Application ALOMY): 95 to 100% | pest or weed control at 17.5 g/ha (APESV bentgrass (Apera spica-venti), 17.5 g ai/ha, read-out: Visual Growth Reduction (%) 21 Days After Application APESV): 45 to 59% | pest or weed control at 35 g/ha (APESV bentgrass (Apera spica-venti), 35 g ai/ha, read-out: Visual Growth Reduction (%) 21 Days After Application APESV): 60 to 74% | pest or weed control at 70 g/ha (APESV bentgrass (Apera spica-venti), 70 g ai/ha, read-out: Visual Growth Reduction (%) 21 Days After Application APESV): 75 to 84% | pest or weed control at 17.5 g/ha (LOLSS ryegrass, 17.5 g ai/ha, read-out: Visual Growth Reduction (%) 21 Days After Application LOLSS): 30 to 44% | pest or weed control at 35 g/ha (LOLSS ryegrass, 35 g ai/ha, read-out: Visual Growth Reduction (%) 21 Days After Application LOLSS): 45 to 59% | pest or weed control at 70 g/ha (LOLSS ryegrass, 70 g ai/ha, read-out: Visual Growth Reduction (%) 21 Days After Application LOLSS): 60 to 74% | pest or weed control at 17.5 g/ha (SETVI green foxtail (Setaria viridis), 17.5 g ai/ha, read-out: Visual Growth Reduction (%) 21 Days After Application SETVI): 60 to 74% | pest or weed control at 35 g/ha (SETVI green foxtail (Setaria viridis), 35 g ai/ha, read-out: Visual Growth Reduction (%) 21 Days After Application SETVI): 75 to 84% | pest or weed control at 70 g/ha (SETVI green foxtail (Setaria viridis), 70 g ai/ha, read-out: Visual Growth Reduction (%) 21 Days After Application SETVI): 85 to 94%

From US9149038B2, “4-amino-6-(heterocyclic)picolinates and 6-amino-2-(heterocyclic)pyrimidine-4-carboxylates and their use as herbicides” (Dow AgroSciences LLC, priority 2013, dated 2015)
